The text below walks through data of patent publication US20020137722A1, “Method for treating a patient with neoplasia by treatment with a paclitaxel derivative” (priority 1998, published 2002).

Data set [1] has as its system HT-29 colon adenocarcinoma cells. Briefly: Apoptosis by DNA fragmentation assay in HT-29 cells. The format is cell-based, human.
Data set [2] relates to HT-29 cells. Briefly: HT-29 tumor cell growth inhibition, SRB assay. The format is cell-based, human. Particulars: for Growth inhibitory activity % Inhibition at 100 μM: 100 μM single dose. Also noted: Growth Inhibition: key to the marks not given beside the values. In general terms: The SRB assay estimates cell density from bound dye.
Data set [3] has as its system PDE peak B (novel cGMP-PDE). Description: cGMP hydrolysis by PDE peak B isolated from SW-480 cells. The format is biochemical, human.
The test system of data set [4] is premalignant lesions in mouse mammary gland organ culture. Description: Mammary gland organ culture model, DMBA-induced premalignant lesions. The conditions noted are these: for inhibition of formation of premalignant lesions: mammary gland organ culture. How it is done:
For example, female BALB/c mice can be treated with a combination of estradiol and progesterone daily, in order to prime the glands to be responsive to hormones in vitro. The animals are sacrificed and thoracic mammary glands are excised aseptically and incubated for ten days in growth media supplemented with insulin, prolactin, hydrocortisone, and aldosterone. DMBA (7,12-dimethylbenz(a)anthracene) is added to medium to induce the formation of premalignant lesions. Fully developed lands are then deprived of prolactin, hydrocortisone, and aldosterone, resulting in the regression of the glands but not the pre malignant lesions.
The test compound is dissolved in DMSO and added to the culture media for the duration of the culture period. At the end of the culture period, the glands are fixed in 10% formalin, stained with alum carmine, and mounted on glass slides. The extent of the area occupied by the mammary lesions can be quantitated by projecting an image of the gland onto a digitation pad. The area covered by the gland is traced on the pad and considered as 100% of the area. The space covered by each of the unregressed structures is also outlined on the digitization pad and quantitated by the computer.
The incidence of forming mammary lesions is the ratio of the glands with mammary lesions to […]. The incidence of mammary lesions in test compound treated glands is compared with that of the untreated glands.
Mammary gland organ culture experiments were performed as previously described (Mehta and Moon, Cancer Research, 46: 5832-5835, 1986). […] The data support the hypothesis that cyclooxygenase inhibition is not necessary for the anti-neoplastic properties of desired compounds.

In data set [5] the test system is cGMP-PDE. Briefly: cGMP-PDE inhibition assay, enzyme from HT-29 cultured tumor cells. The format is biochemical, human. Particulars: for cGMP PDE % Inhibition at 100 μM: 100 μM (test compounds).
Data set [6] concerns COX. Description: COX inhibition. The format is biochemical.
Data set [7] concerns HT-29 cells. Briefly: Apoptosis and necrosis by morphology (acridine orange/ethidium bromide) in HT-29 cells. Type of data set: cell-based, human. The conditions noted are these: 120 μM, time course. How it is done:
Growth inhibition (FIG. 9A, top) was measured by counting viable cells after trypan blue staining. Apoptosis (FIG. 9B, bottom) was measured by morphological determination following staining with acridine orange and ethidium bromide as described previously and Cohen, In: Current Protocols in Immunology, 3.17.1-3.17.16 New York, John Wiley and Sons, 1992). […] All data were collected from the same experiment.
Following treatment with a test compound, cultures can be assayed for apoptosis and necrosis by fluorescent microscopy following labeling with acridine orange and ethidium bromide. […]
Reference compounds and test compounds were analyzed for their cGMP-specific PDE inhibitory activity in accordance with the protocols for the assay, supra. […] Apoptotic and necrotic cell death was determined as previously described (Duke and Cohen, In: Current Protocols in Immunology, 3.17.1-3.17.16, New York. John Wiley and Sons, 1992). […]
The apoptosis inducing activity for a series of phosphodiesterase inhibitors was determined. […] Apoptosis and necrosis were determined morphologically after acridine orange and ethidium bromide labeling in accordance with the assay described supra.

In data set [8] the test system is HT-29 cells. Briefly: Cyclic nucleotide (cGMP, cAMP) levels in HT-29 cells by radioimmunoassay. Type of data set: cell-based, human. Particulars: HT-29 cells treated 30 minutes. Here is the method:
The amount of PDE activity can be determined by assaying for the amount of cyclic GMP in the extract of treated cells using a radioimmunoassay (RIA). In this procedure, a neoplastic cell line is incubated with a test compound. […]
It has been observed that a compound which is useful in the practice of this invention (i.e.. one that selectively induces apoptosis in neoplastic cells, but not substantially in normal cells) follows a time course consistent with cGMP-specific PDE inhibition. […] The intracellular targets of these drug actions are being studied further, but current data support the concert that the initial rise in cGMP content and the subsequent fall in cGMP content precede apoptosis in neoplastic cells exposed to test compounds useful in this invention. To determine the cyclic AMP content in cell extracts, radioimmunoassay techniques similar to those described above for cGMP are used.

Data set [9] addresses T1, PDE peak A (PDE5) (Homo sapiens, UniProt O76074).
T1 construct: SW-480 cells are collected and homogenized; The homogenate is centrifuged, and the supernatant is loaded onto a DEAE-Trisacryl M column; endogenous in cells; host or cells: SW-480 human colon adenocarcinoma cells (DEAE-Trisacryl M fraction, peak A)
Description: cGMP hydrolysis by PDE peak A isolated from SW-480 cells. The format is biochemical.

For data set [10] the following is noted: reversible; cited from earlier work.

SMILES strings stand for the structures. pIC50: −log10 of the molar value.

`CCCOc1ccccc1-c1nc2nn[nH]c2c(=O)[nH]1` [Zaprinast]: in [1], the “apoptosis induction in neoplastic cells” value is “do not have significant apoptosis-inducing”. Moreover, in [2], the “growth inhibition of neoplastic cells” value is given as “do not have significant apoptosis-inducing (Table 6) or growth-inhibiting”. Moreover, the “sensitivity of the new cGMP-PDE (peak B) to inhibition” value (shortened to “sensitivity … to inhibition”) in data set [3] was “relatively insensitive”.

As for `COc1ccc(C2CNC(=O)C2)cc1OC1CCCC1` (centres unmarked) [Rolipram], the “sensitivity … to inhibition” value in [3] is “relatively insensitive”.

As for `CC1=C(CC(=O)O)c2cc(F)ccc2/C1=C/c1ccc([S+](C)[O-])cc1` (centres unmarked) [sulindac sulfoxide], the “inhibition of formation of premalignant lesions” value in data set [4] is “effectively inhibit the formation of premalignant lesions”.

On to `CC(=O)N[C@@H](CSC12CC(=O)OC1(C)/C(=C/c1ccc(S(C)(=O)=O)cc1)c1ccc(F)cc12)C(=O)O` (mixture of isomers) [D, rac-(E)-1-(butan-1′,4′-olide)-[3′,4′:1,2]-6-fluoro-2-methyl-3-(p-methylsulfonylbenzylidene)-1S-indanyl-N-acetylcysteine], for which, in data set [5] (activity profile), the “PDE Inhibition” value is “−”. In addition, the “Mammary Gland Organ Culture” value in data set [4] (activity profile) is “−”. The “COX Inhibition” value in data set [6] (activity profile) is given as “−”. Also, the Apoptosis result in data set [1] (activity profile) is on record as “−”. In addition, the “Growth inhibitory activity % Inhibition at 100 μM” value in data set [2] is listed as 78%. The “Growth Inhibition” value in data set [2] (activity profile) is given as “++”.

For the compound `CC1(C)C(=O)Nc2ccc(C3=NNC(=O)CC3)cc21` [Indolidan], the “sensitivity … to inhibition” value in [3] is reported as “relatively insensitive”.

On to `CC1=C(CC(=O)O)c2cc(F)ccc2/C1=C\c1ccc(Cl)cc1` [C, (Z)-5-Fluoro-2-methyl-1-(p-chlorobenzylidene)-3-acetic acid], for which, in data set [2], the “Growth inhibitory activity % Inhibition at 100 μM” value is listed as 80%.

For the compound `COc1cc(C=C2C(C)=C(CC(=O)O)c3cc(F)ccc32)cc(OC)c1OC` [Compound B, (Z)-5-Fluoro-2-methyl-1-(3,4,5-trimethoxybenzylidene)-3-acetic acid], the “cGMP PDE % Inhibition at 100 μM” value in data set [5] is below 25%. The “COX Inhibition” value is listed as “did not inhibit COX” in data set [6] (100 μM) and “−” in [6] (activity profile).

`CCOC(=O)C1=C[C@]2(CC)CCCN3CCc4c(n1c1ccccc41)[C@@H]32` [Vinpocetine]: the “sensitivity … to inhibition” value in data set [3] is reported as “relatively insensitive”.

One may read the pIC50 as −log10 of the IC50, conventionally taken in molar units. As for `CSc1ccc(/C=C2/C(C)=C(CC(=O)O)c3cc(F)ccc32)cc1` [Sulindac sulfide], in data set [7], the “apoptosis, morphological determination” value was “an increase in apoptosis”. Moreover, in [4], the “inhibition of formation of premalignant lesions” value is “inactive”. Also, the “apoptosis induction in neoplastic cells” value in [1] was “induce apoptosis in neoplastic cells”. Also, the “increase in levels of cGMP” value in data set [8] is “greater than 50%”. Besides, in data set [8] (Homo sapiens, 0.5 h, read-out: IC50 value for increase of cGMP levels), the pIC50 was 5.14.

As to `O=C([O-])C1CCN(c2nc(NCc3ccc4c(c3)OCO4)c3cc(Cl)ccc3n2)CC1.[Na+]` [Compound E4021], the “apoptosis induction in neoplastic cells” value in data set [1] is “do not have significant apoptosis-inducing”. In data set [2], the “growth inhibition of neoplastic cells” value is “do not have significant apoptosis-inducing (Table 6) or growth-inhibiting” and the “Growth inhibitory activity % Inhibition at 100 μM” value was below 50%. In addition, the “sensitivity … to inhibition” value in data set [3] is given as “relatively insensitive”.

As for `CCN(CC)CCSC12CC(=O)OC1(C)/C(=C/c1ccc(S(C)(=O)=O)cc1)c1ccc(F)cc12` (racemic) [A, rac-threo-(E)-1-(N,N′-diethylaminoethanethio)-1-(butan-1′,4′-olido)-[3′,4′:1,2]-6-fluoro-2-methyl-3-(p-methylsulfonylbenzylidene)-indan], in [5], the “cGMP PDE % Inhibition at 100 μM” value is below 25%. Besides, the “COX Inhibition” value in data set [6] (activity profile) is reported as “−”. Besides, in [1] (100 μM), the “Apoptosis inducing activity, Fold induction at 100 μM” value is given as below 2.0 fold. For the same compound, the “Growth inhibitory activity % Inhibition at 100 μM” value in [2] amounted to 68%.

On to `CC1=C(CC(=O)O)c2cc(F)ccc2/C1=C\c1ccc(S(C)(=O)=O)cc1` [Exisulind, (Z)-5-fluoro-2-methyl-1-[[4-(methylsulfonyl)phenyl]methylene]indene-3-yl acetic acid], for which the “inhibition of peak A / PDE5 activity” value in [9] was “inhibits both PDES and the new cGMP-PDE”. In addition, in [10], the “side effects at doses higher than the recommended therapeutic levels” value is given as “elevated levels of liver enzymes”. In addition, the “inhibition of formation of premalignant lesions” value in [4] was “effectively inhibit the formation of premalignant lesions”. Further, in [3], the “sensitivity … to inhibition” value was “inhibits both PDES and the new cGMP-PDE”.

As for `COc1cc(/C=C2/C(C)=C(CC(=O)NCc3ccccc3)c3cc(F)ccc32)cc(OC)c1OC` [Compound E, (Z)-5-Fluoro-2-methyl-1-(3,4,5-trimethoxybenzylidene)-3-indenylacetamide, N-benzyl], the “apoptosis induction in neoplastic cells” value in data set [1] is given as “induce apoptosis in neoplastic cells”.

In the case of `CCCc1nn(C)c2c(=O)[nH]c(-c3cc(S(=O)(=O)N4CCN(C)CC4)ccc3OCC)nc12` [Sildenafil], the “inhibition of peak A / PDE5 activity” value in [9] is “inhibited activity of peak A”. For the same compound, the “apoptosis induction in neoplastic cells” value in data set [1] is recorded as “do not have significant apoptosis-inducing”. Further, in data set [2], the “growth inhibition of neoplastic cells” value was “do not have significant apoptosis-inducing (Table 6) or growth-inhibiting”.
